Assays:
[1] = system: wheat powdery mildew (Blumeria graminis); assay: Efficacy test on wheat powdery mildew, seed treatment (Test Example 10); assay type: in vivo; settings: wheat (Norin 61)
Description: An agent comprising the following compound listed in Table 2 (active ingredient A) and the compound listed in Table 11 (H35: active ingredient B) as active ingredients, was prepared in accordance with the above Formulation Example. This agent was diluted with water to a predetermined concentration to obtain a test solution. A predetermined amount of test solution was put in a glass bottle of 5 ml, and 0.5 g (approximately 15 grains) of wheat seeds (variety: Norin 61) were added, stirred and air-dried. In each pot with a diameter of 7 cm and having soil put therein, 3 grains were seeded and grown for 14 days. To the wheat seedlings grown to the 1-leaf stage, a spore suspension (100,000 cfu/ml) of wheat powdery mildew (Blumeria graminis) was spray-inoculated. After placing the pot in a glass greenhouse for 10 days, the ratio of the formed lesion area occupying the inoculated leaves was measured, and the preventive value was calculated in accordance with the following formula. Preventive value=[1−(treated plot lesion area ratio/untreated plot lesion area ratio)]×100
(§1) Further, from the preventive value at each agent concentration, synergy was calculated by using the Colby method (Colby S. R. 1976, Weeds 15, 20-22).

[2] = system: cucumber gray mold fungus (Botrytis cinerea); assay: Preventive test against gray mold on cucumber cotyledon leaves, spray treatment, preventive value and Colby expected value (Test Examples 1-4); assay type: in vivo; settings: single compound
Description: Using the following compound listed in Table 2 (the active ingredient A) and the compound listed in Table 5 through Table 15 (active ingredient B), an agent was prepared in accordance with the above Formulation Example. This agent was diluted with water to a predetermined concentration to obtain a test solution. Then, cucumber (variety: Sagami-hanjiro) was planted in a plastic pot of 90 cm^3, and in the cotyledon stage, 5 ml of the obtained test solution, was sprayed by a spray gun and air-dried. Thereafter, the treated leaf was cut off and placed in a plastic container which filled approximately 0.5 cm in depth water. A suspension of conidia of cucumber gray mold fungus (Botrytis cinerea) and a dissolved PDA culture medium were mixed at a ratio of 1:1 (mass ratio), and the mixture was dropped to inoculate the treated leaf with 30 μl. After the inoculation, the plastic container was sealed and left at 20° C. for 3 days, the ratio of the formed lesion occupying the inoculated leaf was measured, and the preventive value was calculated in accordance with the following calculation formula. Preventive value=[1−(treated plot lesion area ratio/untreated plot lesion area ratio)]×100
Further, from the preventive value at each agent concentration, synergy was calculated by using the Colby method (Colby S. R. 1976, Weeds 15, 20-22). The calculation method is as follows. E=X+Y−XY/100
X: preventive value of A agent at x concentration
Y: preventive value of B agent at y concentration
E: theoretical value expected by treatment of the mixture of A agent and B agent.
The obtained result is analyzed to be synergy if the observed value is larger than the expected value, to be antagonism if the expected value is larger than the observed value, and to be an additive effect if the observed value and the expected value are the same.
Using the following compound listed in Table 2 (active ingredient A) and the following compound listed in Table 5 through Table 15 (active ingredient B) as active ingredients, a preventive test against gray mold was conducted in accordance with the method described in Test Example 1.
Using the following compound listed in Table 2 (active ingredient A) and the following compound listed in Table 5 or Table 6 (active ingredient B) as active ingredients, a preventive test against gray mold was conducted in accordance with the method described in Test Example 1.
Using the following compound listed in Table 2 (active ingredient A) and the following compound listed in Table 6 through Table 16 (active ingredient B) as active ingredients, a preventive test against gray mold was conducted in accordance with the method described in Test Example 1.

[3] = system: rice sheath blight fungus (Rhizoctonia solani); assay: Efficacy test on rice sheath blight, spray treatment and prevention test (Test Examples 5-6); assay type: in vivo; settings: single compound 250 ppm, lesion height
Description: An agent comprising the following compound listed in Table 2 (active ingredient A) and the compound listed in Table 6 (C17: active ingredient B) as active ingredients, was prepared in accordance with the above Formulation Example. The agent was diluted with water to a predetermined concentration to obtain a test solution. Then, in a plastic pot of 90 cm^3, rice (Nipponbare) was seeded by 5 grains in one place, and to the grown seedlings in 4 seedling phase, the test solution was applied by a spray gun in an amount of 5 ml per pot, for treatment.
One day after the treatment, 1 g of mycelium flora of rice sheath blight fungus (Rhizoctonia solani) cultured in bran medium, was put by […] to a close-to-ground part of seedlings, and the pot was placed in a moist chamber set in temperature of 25° C. and humidity more than 95% RH for eight days. The height of the lesions which appeared in the highest position from the close-to-ground part (lesion height) was investigated, and the preventive value was calculated in accordance with the following formula. Preventive value=[1−(treated plot lesion height/untreated plot lesion height)]×100
(§2) Further, from the preventive value for each agent concentration, synergy was calculated by using the Colby method (Colby S. R. 1976, Weeds 15, 20-22).
Using the following compound listed in Table 2 (active ingredient A) and the compound listed in Table 6 (C17: active ingredient B) as active ingredients, a preventive test on rice sheath blight was conducted in accordance with the above Test Example 5.

[4] = system: cucumber downy mildew (Pseudoperenospora cubensis); assay: Efficacy test on cucumber downy mildew, spray treatment and prevention test (Test Example 7); assay type: in vivo; settings: single compound 250 ppm; lesion area ratio
Description: An agent comprising the following compound listed in Table 2 (active ingredient A) and the compound listed in Table 6 (C40: active ingredient B) as active ingredients, was prepared in accordance with the above Formulation Example. This agent was diluted with water to a predetermined concentration to obtain a test solution. Then, to seedlings of cucumber (variety: Sagami-hanjiro) at 1.5-leaf stage grown in a pot with a diameter of 7 cm, the test solution was applied by a spray gun in an amount of 10 ml per pot, for treatment. One day after the treatment, a spore suspension (2×100,000 cfu/ml) of cucumber downy mildew (Pseudoperenospora cubensis), was spray-inoculated, and the pot was placed in a moist chamber set in temperature of 20° C. and humidity more than 95% RH for 24 hours. After placing the pot in a glass greenhouse for 6 days, the ratio of the formed lesion area occupying the inoculated leaves was measured, and the preventive value was calculated in accordance with the following formula. Preventive value=[1−(treated plot lesion area ratio/untreated plot lesion area ratio)]×100
as §2

[5] = system: wheat glume blotch (Leptosphaeria nodorum); assay: Efficacy test on wheat glume blotch, spray treatment and prevention test (Test Example 8); assay type: in vivo; settings: spray, lesion area ratio
Description: An agent comprising the following compound listed in Table 2 (active ingredient A) and the following compound listed in Table 6, Table 11 or Table 15 (active ingredient B) as active ingredients, was prepared in accordance with the above Formulation Example. This agent was diluted with water to a predetermined concentration to obtain a test solution. Then, to seedlings of wheat (variety: Haruyutaka) at the 1-leaf stage, seeded in a pot with a diameter of 7 cm, with 5 seeds per pot, and grown for 7 days, the test solution was applied by a spray gun in an amount of 5 ml per pot, for treatment. One day after the treatment, a spore suspension (1×100,000 cfu/ml) of wheat glume blotch (Leptosphaeria nodorum) was spray-inoculated, and the pot was placed in a moist chamber set in temperature of 20° C. and humidity more than 95% RH for 48 hours. After placing the pot in a glass greenhouse for 7 days, the ratio of the formed lesion area occupying the inoculated leaves was measured, and the preventive value was calculated in accordance with the following formula. Preventive value=[1−(treated plot lesion area ratio/untreated plot lesion area ratio)]×100
as §2

[6] = system: cucumber powdery mildew (Sphaerotheca cucurbitae); assay: Efficacy test on cucumber powdery mildew, irrigation treatment (Test Example 11); assay type: in vivo; settings: concentration 500 ppm, cucumber (Sagami-hanjiro)
Description: An agent comprising the following compound listed in Table 2 (active ingredient A) and the compound listed in Table 6 (C18: active ingredient B), was prepared in accordance with the above Formulation Example. This agent was diluted with water to a predetermined concentration to obtain a test solution. 5 ml of the test solution was irrigated by a pipette to the close-to-ground part of cucumber seedlings at the 1 leaf stage (variety: Sagami-hanjiro), grown in a styrol cup with a diameter of 10 cm, and next day, the seedlings were transplanted to the to 4 cun pots. Then, after cultivation for 7 days in a glass greenhouse, to the first true leaf of the cucumber, a spore suspension (100,000 cfu/ml) of cucumber powdery mildew (Sphaerotheca cucurbitae) was inoculated by spraying. After 10 days in a glass greenhouse, the ratio of the formed lesion area occupying the inoculated leaves was measured, and the preventive value was calculated in accordance with the following formula. Preventive value=[1−(treated plot lesion area ratio/untreated plot lesion area ratio)]×100
as §1

[7] = processing amount 5 mg/1 g seed
[8] = processing amount 10 mg/1 g seed

| Structure (SMILES) | Preventive value [1, 7] | Preventive value [1, 8] | Preventive value ([2]; Test Example 2, 3 ppm spray) | Preventive value ([2]; Test Example 3, 3 ppm spray) | Preventive value ([2]; Test Example 4, 3 ppm spray) | Preventive value ([3]; Test Example 6) | Preventive value [4] | Preventive value ([5]; single compound 3 ppm) | Preventive value ([5]; single compound 10 ppm) | Preventive value [6] | melting point | Preventive value ([2]; Test Example 1, 3 ppm spray) | Preventive value ([3]; Test Example 5) | Preventive value ([2]; Test Example 2, 1 ppm spray) | Preventive value ([2]; Test Example 3, 1 ppm spray) | Preventive value ([2]; Test Example 4, 1 ppm spray) |
| --- | --- | --- | --- | --- | --- | --- | --- | --- | --- | --- | --- | --- | --- | --- | --- | --- |
| CCC(C)ON=C(CNC(=O)c1cn(C)nc1C(F)F)c1ncc(C#CC2CC2)cc1Cl (mixture of isomers) [Compound No. 27] | 85 | 90 | 50 | 55 | 45 | 8 | 0 | 75 | 85 | 60 |  |  |  |  |  |  |
| CO/N=C(/CNC(=O)c1ccccc1C(F)(F)F)c1ncc(Cl)c(OC)c1Cl [Compound No. 8, (Z)—N-[2-[3,5-dichloro-4-(methoxy)pyridin-2-yl]-2-(methoxyimino)ethyl]-2-(trifluoromethyl)benzamide] |  |  |  |  |  |  |  |  |  |  | 74 to 76 °C |  |  |  |  |  |
| CC#Cc1cnc(C(CNC(=O)c2ccccc2C(F)(F)F)=NOC(C)C)c(Cl)c1 [compound 18] | 62 | 98 |  | 85 | 75 |  | 0 | 50 | 65 | 35 |  | 88 | 8 |  |  |  |
| O=C(NCC(=NOCC(F)(F)F)c1ncc(Cl)cc1Cl)c1ccccc1C(F)(F)F [compound 33] | 20 | 61 | 45 | 45 | 50 | 4 | 0 | 20 | 45 | 15 |  |  |  |  |  |  |
| CC#Cc1cnc(C(CNC(=O)c2cn(C)nc2C(F)F)=NOC(C)(C)C)c(Cl)c1 [compound 34] | 20 | 85 |  |  |  | 5 | 5 | 80 | 85 | 60 |  |  |  | 63 | 70 | 50 |
| CON=C(CNC(=O)c1cccnc1Cl)c1ncc(C#CC(C)(C)C)cc1Cl [compound 35] | 20 | 61 |  | 90 | 88 | 5 | 0 | 50 | 70 | 30 |  | 88 |  |  |  |  |
| CON=C(CNC(=O)c1ccccc1C(F)(F)F)c1ncc(C#CC2CC2)cc1Cl [compound 36] | 99 | 100 |  | 80 | 80 |  | 0 | 55 | 70 | 35 |  | 75 | 0 |  |  |  |
